Data reported in PubChem BioAssay (NCI).
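Compound exposure: 48 hours, 5 concentrations, 96-well plates. GI50 = concentration required for 50% inhibition of growth. Definition used: TGI = concentration required for complete inhibition of growth.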

Assays:
Assay in all cases: NCI-60 cell line screen, 48 h
786-0 renal = tested on: 786-0 renal
A498 renal = tested on: A498 renal
A549 NSCLC = tested on: A549 NSCLC
ACHN renal = tested on: ACHN renal
BT-549 breast = tested on: BT-549 breast
CAKI-1 renal = tested on: CAKI-1 renal
CCRF-CEM leukemia = tested on: CCRF-CEM leukemia
COLO 205 colon = tested on: COLO 205 colon
DU-145 prostate = tested on: DU-145 prostate
EKVX NSCLC = tested on: EKVX NSCLC
HCC-2998 colon = tested on: HCC-2998 colon
HCT-116 colon = tested on: HCT-116 colon
HCT-15 colon = tested on: HCT-15 colon
HL-60(TB) leukemia = tested on: HL-60(TB) leukemia
HOP-62 NSCLC = tested on: HOP-62 NSCLC
HOP-92 NSCLC = tested on: HOP-92 NSCLC
HS 578T breast = tested on: HS 578T breast
HT29 colon = tested on: HT29 colon
IGROV1 ovarian = tested on: IGROV1 ovarian
K-562 leukemia = tested on: K-562 leukemia
KM12 colon = tested on: KM12 colon
LOX IMVI melanoma = tested on: LOX IMVI melanoma
M14 melanoma = tested on: M14 melanoma
MALME-3M melanoma = tested on: MALME-3M melanoma
MCF7 breast = tested on: MCF7 breast
MDA-MB-231 breast = tested on: MDA-MB-231 breast
MDA-MB-435 = tested on: MDA-MB-435
MOLT-4 leukemia = tested on: MOLT-4 leukemia
NCI-H226 lung = tested on: NCI-H226 lung
NCI-H23 lung = tested on: NCI-H23 lung
NCI-H460 lung = tested on: NCI-H460 lung
NCI-H522 lung = tested on: NCI-H522 lung
NCI/ADR-RES ovarian = tested on: NCI/ADR-RES ovarian
OVCAR-3 ovarian = tested on: OVCAR-3 ovarian
OVCAR-4 ovarian = tested on: OVCAR-4 ovarian
OVCAR-5 ovarian = tested on: OVCAR-5 ovarian
OVCAR-8 ovarian = tested on: OVCAR-8 ovarian
PC-3 prostate = tested on: PC-3 prostate
RPMI-8226 leukemia = tested on: RPMI-8226 leukemia
RXF 393 renal = tested on: RXF 393 renal
SF-268 CNS = tested on: SF-268 CNS
SF-295 CNS = tested on: SF-295 CNS
SF-539 CNS = tested on: SF-539 CNS
SK-MEL-2 melanoma = tested on: SK-MEL-2 melanoma
SK-MEL-28 melanoma = tested on: SK-MEL-28 melanoma
SK-MEL-5 melanoma = tested on: SK-MEL-5 melanoma
SK-OV-3 ovarian = tested on: SK-OV-3 ovarian
SN12C renal = tested on: SN12C renal
SNB-19 CNS = tested on: SNB-19 CNS
SNB-75 CNS = tested on: SNB-75 CNS
SR leukemia = tested on: SR leukemia
SW-620 colon = tested on: SW-620 colon
T-47D breast = tested on: T-47D breast
TK-10 renal = tested on: TK-10 renal
U251 CNS = tested on: U251 CNS
UACC-257 melanoma = tested on: UACC-257 melanoma
UACC-62 melanoma = tested on: UACC-62 melanoma
UO-31 renal = tested on: UO-31 renal

CNC(=O)c1cccc(C#Cc2cncnc2Nc2ccc(OCc3cccc(F)c3)c(Cl)c2)c1
GI50 (786-0 renal): 6.33 µM | TGI (786-0 renal): > 25 µM | GI50 (A498 renal): 1.84 µM | TGI (A498 renal): 10.9 µM | GI50 (A549 NSCLC): 3.85 µM | TGI (A549 NSCLC): 8.9 µM | GI50 (ACHN renal): 4.18 µM | TGI (ACHN renal): 24.9 µM | GI50 (BT-549 breast): 8.56 µM | TGI (BT-549 breast): > 25 µM | GI50 (CAKI-1 renal): 2.09 µM | TGI (CAKI-1 renal): > 25 µM | GI50 (CCRF-CEM leukemia): > 25 µM | TGI (CCRF-CEM leukemia): > 25 µM | GI50 (COLO 205 colon): 7.5 µM | TGI (COLO 205 colon): > 18.4 µM | GI50 (DU-145 prostate): 3.57 µM | TGI (DU-145 prostate): 8.96 µM | GI50 (EKVX NSCLC): 1.22 µM | TGI (EKVX NSCLC): > 25 µM | GI50 (HCC-2998 colon): 9.15 µM | TGI (HCC-2998 colon): > 25 µM | GI50 (HCT-116 colon): 5.11 µM | TGI (HCT-116 colon): 13.6 µM | GI50 (HCT-15 colon): 6.52 µM | TGI (HCT-15 colon): > 25 µM | GI50 (HL-60(TB) leukemia): > 25 µM | TGI (HL-60(TB) leukemia): > 25 µM | GI50 (HOP-62 NSCLC): 5.03 µM | TGI (HOP-62 NSCLC): 10.4 µM | GI50 (HOP-92 NSCLC): 3.31 µM | TGI (HOP-92 NSCLC): 11 µM | GI50 (HS 578T breast): 7.47 µM | TGI (HS 578T breast): > 25 µM | GI50 (HT29 colon): 8.64 µM | TGI (HT29 colon): > 25 µM | GI50 (IGROV1 ovarian): 4.66 µM | TGI (IGROV1 ovarian): > 25 µM | GI50 (K-562 leukemia): 9.7 µM | TGI (K-562 leukemia): > 25 µM | GI50 (KM12 colon): 7.22 µM | TGI (KM12 colon): > 19.4 µM | GI50 (LOX IMVI melanoma): 5.77 µM | TGI (LOX IMVI melanoma): > 17 µM | GI50 (M14 melanoma): 10.7 µM | TGI (M14 melanoma): > 25 µM | GI50 (MALME-3M melanoma): 9.31 µM | TGI (MALME-3M melanoma): 24.6 µM | GI50 (MCF7 breast): 4.61 µM | TGI (MCF7 breast): 12.5 µM | GI50 (MDA-MB-231 breast): 5.95 µM | TGI (MDA-MB-231 breast): > 19.5 µM | GI50 (MDA-MB-435): 7.02 µM | TGI (MDA-MB-435): > 25 µM | GI50 (MOLT-4 leukemia): > 25 µM | TGI (MOLT-4 leukemia): > 25 µM | GI50 (NCI-H226 lung): 5.8 µM | TGI (NCI-H226 lung): > 17.9 µM | GI50 (NCI-H23 lung): 7.5 µM | TGI (NCI-H23 lung): 24.2 µM | GI50 (NCI-H460 lung): 5.04 µM | TGI (NCI-H460 lung): 12.9 µM | GI50 (NCI-H522 lung): 5.29 µM | TGI (NCI-H522 lung): > 25 µM | GI50 (NCI/ADR-RES ovarian): 6.94 µM | TGI (NCI/ADR-RES ovarian): > 25 µM | GI50 (OVCAR-3 ovarian): 3.82 µM | TGI (OVCAR-3 ovarian): 8.03 µM | GI50 (OVCAR-4 ovarian): 4.23 µM | TGI (OVCAR-4 ovarian): 12.3 µM | GI50 (OVCAR-5 ovarian): 7.34 µM | TGI (OVCAR-5 ovarian): > 25 µM | GI50 (OVCAR-8 ovarian): 7.3 µM | TGI (OVCAR-8 ovarian): > 25 µM | GI50 (PC-3 prostate): 7.49 µM | TGI (PC-3 prostate): > 22.8 µM | GI50 (RPMI-8226 leukemia): 14 µM | TGI (RPMI-8226 leukemia): > 25 µM | GI50 (RXF 393 renal): 2.91 µM | TGI (RXF 393 renal): 11.7 µM | GI50 (SF-268 CNS): 4.54 µM | TGI (SF-268 CNS): 12.9 µM | GI50 (SF-295 CNS): 5.45 µM | TGI (SF-295 CNS): 20.5 µM | GI50 (SF-539 CNS): 4.39 µM | TGI (SF-539 CNS): 9.69 µM | GI50 (SK-MEL-2 melanoma): 8.82 µM | TGI (SK-MEL-2 melanoma): > 25 µM | GI50 (SK-MEL-28 melanoma): 5.82 µM | TGI (SK-MEL-28 melanoma): > 17.7 µM | GI50 (SK-MEL-5 melanoma): 5.8 µM | TGI (SK-MEL-5 melanoma): > 20.7 µM | GI50 (SK-OV-3 ovarian): 3.19 µM | TGI (SK-OV-3 ovarian): 12.7 µM | GI50 (SN12C renal): 12 µM | TGI (SN12C renal): > 25 µM | GI50 (SNB-19 CNS): 6.9 µM | TGI (SNB-19 CNS): > 25 µM | GI50 (SNB-75 CNS): 5.26 µM | TGI (SNB-75 CNS): 14.4 µM | GI50 (SR leukemia): 24.2 µM | TGI (SR leukemia): > 25 µM | GI50 (SW-620 colon): 7.16 µM | TGI (SW-620 colon): > 25 µM | GI50 (T-47D breast): 3.18 µM | TGI (T-47D breast): 15.7 µM | GI50 (TK-10 renal): 1.46 µM | TGI (TK-10 renal): 9.03 µM | GI50 (U251 CNS): 4.47 µM | TGI (U251 CNS): 10.2 µM | GI50 (UACC-257 melanoma): 9.72 µM | TGI (UACC-257 melanoma): > 25 µM | GI50 (UACC-62 melanoma): 16 µM | TGI (UACC-62 melanoma): > 25 µM | GI50 (UO-31 renal): 1.58 µM | TGI (UO-31 renal): > 25 µM
